# From patent publication US9827219B2, “Compositions and methods for lowering levels of high-sensitivity C-reactive protein (HS-CRP) in a subject” (priority 2012, dated 2017)
# Assays:
# Assay type in all cases: in vivo, human
# [1] = Safety and tolerability (adverse events), AAMI pilot study (Example 1); settings: for TEAE Probably Related to the study drug: one subject
# Protocol: All randomized subjects that received at least 1 dose of study medication were included in the Safety Population.
# Safety evaluations were based on the safety population. Safety and tolerability were assessed in terms of AEs, vital signs, 12-lead ECG, clinical laboratory data, medical history, and study drug compliance. Safety and tolerability data were presented by treatment group.
# LDL-C = LDL-C in patients with diabetes mellitus-2 (Example 2); settings: 4 g/day; for Median placebo-adjusted percent change in LDL-C from baseline to study end: 12 weeks, on statin
# Excerpt: (§1) Parameters (a)-(y) can be measured in accordance with any clinically acceptable methodology. For example, triglycerides, total cholesterol, HDL-C and fasting blood sugar can be sample from serum and analyzed using standard photometry techniques. VLDL-TG, LDL-C and VLDL-C can be calculated or determined using serum lipoprotein fractionation by preparative ultracentrifugation and subsequent quantitative analysis by refractometry or by analytic ultracentrifugal methodology. Apo A1, Apo B and hsCRP can be determined from serum using standard nephelometry techniques. Lipoprotein (a) can be determined from serum using standard turbidimetric immunoassay techniques. LDL particle number and particle size can be determined using nuclear magnetic resonance (NMR) spectrometry. Remnants lipoproteins and LDL-phospholipase A2 can be determined from EDTA plasma or serum and serum, respectively, using enzymatic immunoseparation techniques. Oxidized LDL, intercellular adhesion molecule-1 and interleukin-2 levels can be determined from serum using standard enzyme immunoassay techniques. These techniques are described in detail in standard textbooks, for example Tietz Fundamentals of Clinical Chemistry, 6th Ed. (Burtis, Ashwood and Borter Eds.), WB Saunders Company.
# (§2) The effect of >96% E-EPA on lipid and inflammatory parameters was evaluated in patients with fasting triglyceride levels ≧150 mg/dl and <499 mg/dl on concomitant statin therapy. Patients with diabetes mellitus-2 were randomized and treated with either 2 g/day >96% E-EPA, 4 g/day >96%, or placebo for twelve weeks. At the end of the treatment period, several diabetes efficacy endpoints were evaluated including, TG, LDL-C, non-HDL-C, VLDL-C, Lp-PLA2, Apo B, TC, HDL-C, VLDL-TG, hs-CRP, oxLDL, and RLP-C.
# hsCRP [2] = test: hsCRP in patients with diabetes mellitus-2 (Example 2); settings: 4 g/day, 12 weeks, on statin
# Excerpt: as §1, §2
# Ox-LDL = test: ANCHOR study, oxidized LDL; settings: ANCHOR ITT, week 12
# Excerpt: as §1, with “Company. […]” for “Company.”
# hsCRP [3] = test: ANCHOR study, hsCRP (also by statin type and statin efficacy regimen)
# Excerpt: as §1
# A multi-center, placebo-controlled, randomized, double-blind, 12-week study was performed to evaluate the efficacy and safety of >96% E-EPA in patients with fasting triglyceride levels ≧200 mg/dl and <500 mg/dl despite statin therapy (the mean of two qualifying entry values needed to be ≧185 mg/dl and at least one of the values needs to be ≧200 mg/dl). The primary objective of the study was to determine the efficacy of >96% E-EPA 2 g daily and 4 g daily, compared to placebo, in lowering fasting TG levels in patients with high risk for cardiovascular disease and with fasting TG levels ≧200 mg/dL and <500 mg/dL, despite treatment to LDL-C goal on statin therapy.
# The population for this study was men and women >18 years of age with a body mass index ≦45 kg/m^2 with fasting TG levels greater than or equal to 200 mg/dl and less than 500 mg/dl and on a stable does of statin therapy (with or without ezetimibe). The statin must have been atorvostatin, rosuvastatin or simvastatin. The dose of statin must have been stable for ≧4 weeks prior to the LDL-C/TG baseline qualifying measurement for randomization. The statin dose was optimal such that the patients are at their LDL-C goal at the LDL-C/TG baseline qualifying measurements. The same statin at the same dose was continued until the study ended.
# Approximately 648 patients were randomized at approximately 80 centers in the U.S. The study was a 18- to 20-week, Phase 3, multi-center study consisting of 2 study periods: (1) A 6- to 8-week screening period that included a diet and lifestyle stabilization, a non-statin lipid-altering treatment washout, and an LDL-C and TG qualifying period and (2) A 12-week, double-blind, randomized, placebo-controlled treatment period.
# After confirmation of qualifying fasting LDL-C and TG values, eligible patients entered a 12-week, randomized, double-blind treatment period. At Visit 4 (Week 0), patients were randomly assigned to 1 of the following treatment groups: • >96% E-EPA 2 g daily, • >96% E-EPA 4 g daily, or • Placebo.
# Approximately 216 patients per treatment group were randomized in this study. Stratification was by type of statin (atorvastatin, rosuvastatin or simvastatin), the presence of diabetes, and gender. […]
# [4] = less-controlled diabetes (HbA1c ≧ median of 6.8%)
# [5] = well-controlled diabetes (HbA1c < median of 6.8%)
smiles,measurement,setting,value
"CC/C=C\C/C=C\C/C=C\C/C=C\C/C=C\CCCC(=O)OCC [AMR101, all-cis eicosa-5,8,11,14,17-pentaenoic acid ethyl ester]",Subjects with nausea Possibly Related to the study drug,[1]; 1 g cohort,two
same,TEAE Probably Related to the study drug,[1]; 1 g,nausea
same,Subjects with nausea Possibly Related to the study drug,[1]; 2 g cohort,one
same,SAE reported,[1]; 2 g treatment group,One
same,Subjects discontinued due to TEAEs,[1]; 2 g treatment group,2 subjects
same,Subjects with nausea Possibly Related to the study drug,[1]; 4 g cohort,two
same,TEAE Probably Related to the study drug,[1]; 4 g,diarrhea
same,Deaths during the study,[1]; all groups,no deaths
same,TEAEs Definitely Related to the study drug,[1]; all groups,No TEAEs were Definitely Related
same,Treatment emergent AEs (TEAEs) reported,"[1]; ethyl-EPA treatment groups (1, 2, 4 g), 6 weeks, placebo groups 34 events",105 events
same,Relatedness of the SAE (worsening epigastric chest pain),[1]; one subject receiving 2 g,unrelated to the study drug
same,Severity and relatedness of most TEAEs,[1]; whole study,mild in severity and unrelated to study drug
same,Median placebo-adjusted percent change in LDL-C from baseline to study end,LDL-C; [4],−5.7%
same,Median placebo-adjusted percent change in LDL-C from baseline to study end,LDL-C; total diabetes,−6.3%
same,Median placebo-adjusted percent change in LDL-C from baseline to study end,LDL-C; [5],−6.6%
same,"LDL-C levels between well-controlled, less-controlled and all diabetic subjects",LDL-C; twelve weeks,no significant decrease in LDL-C levels
same,Median placebo-adjusted percent change in hsCRP from baseline to study end,hsCRP [2]; [4],−34.6%
same,Median placebo-adjusted percent change in hsCRP from baseline to study end,hsCRP [2]; total diabetes,−21.5%
same,Median placebo-adjusted percent change in hsCRP from baseline to study end,hsCRP [2]; [5],−4.0%
same,Ox-LDL change from baseline (median),Ox-LDL; 2 g/day,2.6%
same,Ox-LDL change from baseline (median),Ox-LDL; 4 g/day,−4.8%
same,"hsCRP end-of-treatment value, median","hsCRP [3]; ANCHOR ITT, 2 g/day, week 12",2.5 mg/L
same,hsCRP change from baseline (median),"hsCRP [3]; ANCHOR ITT, 4 g/day, week 12",−2.4%
same,"hsCRP end-of-treatment value, median","hsCRP [3]; ANCHOR ITT, 4 g/day, week 12",2.0 mg/L
same,hsCRP median placebo-adjusted % change from baseline,"hsCRP [3]; ANCHOR, atorvastatin, AMR101 2 g/day vs placebo, P 0.6563",−9.3%
same,"hsCRP change from baseline, median %","hsCRP [3]; ANCHOR, atorvastatin, AMR101 2 g/day, week 12",20.1%
same,"hsCRP end-of-treatment value, median","hsCRP [3]; ANCHOR, atorvastatin, AMR101 2 g/day, week 12, baseline 1.7",2.3 mg/L
same,hsCRP median placebo-adjusted % change from baseline,"hsCRP [3]; ANCHOR, atorvastatin, AMR101 4 g/day vs placebo, P 0.0475",−36.7%
same,"hsCRP change from baseline, median %","hsCRP [3]; ANCHOR, atorvastatin, AMR101 4 g/day, week 12",−11.7%
same,"hsCRP end-of-treatment value, median","hsCRP [3]; ANCHOR, atorvastatin, AMR101 4 g/day, week 12, baseline 2.1",1.5 mg/L
same,hsCRP median placebo-adjusted % change from baseline,"hsCRP [3]; ANCHOR, higher-efficacy statin regimen, AMR101 2 g/day vs placebo, P 0.5227",−8.3%
same,"hsCRP change from baseline, median %","hsCRP [3]; ANCHOR, higher-efficacy statin regimen, AMR101 2 g/day, week 12",16.7%
same,"hsCRP end-of-treatment value, median","hsCRP [3]; ANCHOR, higher-efficacy statin regimen, AMR101 2 g/day, week 12, baseline 1.7",2.2 mg/L
same,hsCRP median placebo-adjusted % change from baseline,"hsCRP [3]; ANCHOR, higher-efficacy statin regimen, AMR101 4 g/day vs placebo, P 0.0210",−28.6%
same,"hsCRP change from baseline, median %","hsCRP [3]; ANCHOR, higher-efficacy statin regimen, AMR101 4 g/day, week 12",0.0%
same,"hsCRP end-of-treatment value, median","hsCRP [3]; ANCHOR, higher-efficacy statin regimen, AMR101 4 g/day, week 12, baseline 2.5",2.0 mg/L
same,"hsCRP change from baseline, median %","hsCRP [3]; ANCHOR, lower-efficacy statin regimen, AMR101 2 g/day, week 12",13.3%
same,"hsCRP end-of-treatment value, median","hsCRP [3]; ANCHOR, lower-efficacy statin regimen, AMR101 2 g/day, week 12, baseline 1.5",1.7 mg/L
same,hsCRP median placebo-adjusted % change from baseline,"hsCRP [3]; ANCHOR, lower-efficacy statin regimen, AMR101 4 g/day vs placebo, P 0.8843",4.0%
same,"hsCRP change from baseline, median %","hsCRP [3]; ANCHOR, lower-efficacy statin regimen, AMR101 4 g/day, week 12",11.9%
same,"hsCRP end-of-treatment value, median","hsCRP [3]; ANCHOR, lower-efficacy statin regimen, AMR101 4 g/day, week 12, baseline 2.1",2.4 mg/L
same,hsCRP median placebo-adjusted % change from baseline,"hsCRP [3]; ANCHOR, medium-efficacy statin regimen, AMR101 2 g/day vs placebo, P 0.2839",−8.3%
same,"hsCRP change from baseline, median %","hsCRP [3]; ANCHOR, medium-efficacy statin regimen, AMR101 2 g/day, week 12",8.7%
same,"hsCRP end-of-treatment value, median","hsCRP [3]; ANCHOR, medium-efficacy statin regimen, AMR101 2 g/day, week 12, baseline 2.3",2.6 mg/L
same,hsCRP median placebo-adjusted % change from baseline,"hsCRP [3]; ANCHOR, medium-efficacy statin regimen, AMR101 4 g/day vs placebo, P 0.0034",−22.8%
same,"hsCRP change from baseline, median %","hsCRP [3]; ANCHOR, medium-efficacy statin regimen, AMR101 4 g/day, week 12",−7.7%
same,"hsCRP end-of-treatment value, median","hsCRP [3]; ANCHOR, medium-efficacy statin regimen, AMR101 4 g/day, week 12, baseline 2.2",1.8 mg/L
same,hsCRP median placebo-adjusted % change from baseline,"hsCRP [3]; ANCHOR, rosuvastatin, AMR101 2 g/day vs placebo, P 0.3922",−11.0%
same,"hsCRP change from baseline, median %","hsCRP [3]; ANCHOR, rosuvastatin, AMR101 2 g/day, week 12",0.0%
same,"hsCRP end-of-treatment value, median","hsCRP [3]; ANCHOR, rosuvastatin, AMR101 2 g/day, week 12, baseline 1.6",2.0 mg/L
same,hsCRP median placebo-adjusted % change from baseline,"hsCRP [3]; ANCHOR, rosuvastatin, AMR101 4 g/day vs placebo, P 0.0217",−31.4%
same,"hsCRP change from baseline, median %","hsCRP [3]; ANCHOR, rosuvastatin, AMR101 4 g/day, week 12",−1.2%
same,"hsCRP end-of-treatment value, median","hsCRP [3]; ANCHOR, rosuvastatin, AMR101 4 g/day, week 12, baseline 2.6",1.9 mg/L
same,hsCRP median placebo-adjusted % change from baseline,"hsCRP [3]; ANCHOR, simvastatin, AMR101 2 g/day vs placebo, P 0.6562",−3.8%
same,"hsCRP change from baseline, median %","hsCRP [3]; ANCHOR, simvastatin, AMR101 2 g/day, week 12",11.0%
same,"hsCRP end-of-treatment value, median","hsCRP [3]; ANCHOR, simvastatin, AMR101 2 g/day, week 12, baseline 2.2",2.7 mg/L
same,hsCRP median placebo-adjusted % change from baseline,"hsCRP [3]; ANCHOR, simvastatin, AMR101 4 g/day vs placebo, P 0.0755",−13.6%
same,"hsCRP change from baseline, median %","hsCRP [3]; ANCHOR, simvastatin, AMR101 4 g/day, week 12",0.0%
same,"hsCRP end-of-treatment value, median","hsCRP [3]; ANCHOR, simvastatin, AMR101 4 g/day, week 12, baseline 2.2",2.2 mg/L
same,hsCRP median placebo-adjusted change from baseline,"hsCRP [3]; ANCHOR, 2 g/day, concomitant atorvastatin",statistically insignificant
same,hsCRP median placebo-adjusted change from baseline,"hsCRP [3]; ANCHOR, 2 g/day, concomitant rosuvastatin",statistically insignificant
same,hsCRP median placebo-adjusted change from baseline,"hsCRP [3]; ANCHOR, 2 g/day, concomitant simvastatin",statistically insignificant
same,hsCRP median placebo-adjusted change from baseline,"hsCRP [3]; ANCHOR, 2 g/day, high-efficacy statin therapy",statistically insignificant
same,hsCRP median placebo-adjusted change from baseline,"hsCRP [3]; ANCHOR, 2 g/day, low-efficacy statin therapy",statistically insignificant
same,hsCRP median placebo-adjusted change from baseline,"hsCRP [3]; ANCHOR, 2 g/day, medium-efficacy statin therapy",statistically insignificant
same,hsCRP median placebo-adjusted change from baseline,"hsCRP [3]; ANCHOR, 4 g/day, concomitant atorvastatin",−36.7%
same,hsCRP median placebo-adjusted change from baseline,"hsCRP [3]; ANCHOR, 4 g/day, concomitant rosuvastatin",−31.4%
same,hsCRP median placebo-adjusted change from baseline,"hsCRP [3]; ANCHOR, 4 g/day, concomitant simvastatin",statistically insignificant
same,hsCRP median placebo-adjusted change from baseline,"hsCRP [3]; ANCHOR, 4 g/day, high-efficacy statin therapy",−28.6%
same,hsCRP median placebo-adjusted change from baseline,"hsCRP [3]; ANCHOR, 4 g/day, low-efficacy statin therapy (e.g., simvastatin 5-10 mg/day)",statistically insignificant
